{"source": "patent US4038390A", "about": "“Salts of p-dihydroxybenzene disulfonic acids for combatting hemorrhages and fragility of the capillaries” (Laboratorios del Dr. Esteve, S.A., priority 1972, dated 1977)", "key": {"average bleeding time": {"test_system": "average bleeding time", "assay": "Hemostatic action: average bleeding time, method of ROSKAM modified by LAPORTE, rabbit's ear", "type": "in vivo", "conditions": "for DE50: effect and route not given; for Percentage decrease of average bleeding time: one hour after administering", "method": "(§1) The activity for the hemostatic action is determined in vivo, by ROSKAM's method, as modified by LAPORTE, on the rabbit's ear, and the protective action on the capillaries by the method of BEACH and STEINETZ. The therapeutical index (ratio between LD50 and TE50) is very favorable, in view of the high activity and low toxicity."}, "[1]": {"assay": "DL50 of some compounds according to the invention (species not stated)", "set-up": "DL50: unit not given beside the values", "conditions": "in vivo", "description": "The following table gives the values for DL50 and DE50, as well as proposed doses of some compounds according to the present invention."}, "[2]": {"assay": "Acute toxicity in the mouse (LD50, method of Reed and Muench)", "conditions": "in vivo", "method": "(§2) 1. Acute toxicity in the mouse and the rat\n(§3) The LD50 was determined according to the method of Reed and Muench."}, "[3]": {"assay": "Acute toxicity in the rat (LD50, method of Reed and Muench)", "conditions": "in vivo", "method": "as §2\n100 to 150 g Sprague-Dawley rats\nas §3"}, "capillary permeability": {"test_system": "capillary permeability", "assay": "Protective action on capillaries: capillary permeability, modified method of BEACH-STEINITZ", "type": "in vivo", "conditions": "mouse", "method": "as §1\nThe action of bis diethylamine p-dihydroxy benzene disulfonate on the capillary permeability for the mouse was determined by the modified method of BEACH-STEINITZ (J. Pharmacol. Exp. Ther. 131 (1), 400, 1961). The product, administered i.p., causes a decrease of the capillary permeability which appears after 8 micromoles/kg, and higher doses, and the maximum effect is attained at a dose of 200 micromoles/kg."}, "[4]": {"test_system": "plasma cholesterol, triglyceride, and total lipids levels", "assay": "Hypolipedemic action in rats treated with Triton WR-1339", "type": "in vivo, Sprague-Dawley rats"}}, "data": [{"smiles": "O=S(=O)(O)c1cc(O)c(S(=O)(=O)O)cc1O", "note": "[bis (ammonium) p-dihydroxy-benzene disulfonate] [bis (ammonium)-p-dihydroxy benzene disulfonate]", "values": [{"measurement": "DE50", "setting": "average bleeding time", "result": "2,45 μmoles/kg"}]}, {"smiles": "O=S(=O)(O)c1cc(O)c(S(=O)(=O)O)cc1O", "note": "[bis (ammonium)-p-dihydroxy benzene disulfonate]", "values": [{"measurement": "LD50", "setting": "[1]; route not given", "result": 1210, "unit": "mg/kg"}]}, {"smiles": "O=S(=O)(O)c1cc(O)c(S(=O)(=O)O)cc1O", "note": "[bis (piperazine) p-dihydroxy-benzene disulfonate] [bis (piperazine) p-dihydroxy benzene disulfonate]", "values": [{"measurement": "DL50", "setting": "[1]; po", "result": "> 2000"}, {"measurement": "DE50", "setting": "average bleeding time", "result": "1,25 μmoles/kg"}]}, {"smiles": "O=S(=O)(O)c1cc(O)c(S(=O)(=O)O)cc1O", "note": "[bis-diethylamine p-dihydroxy benzene disulfonate] [listing 1 of 2 here]", "values": [{"measurement": "LD50", "setting": "[2]; iv, I.V., mouse female", "result": 1020, "unit": "mg/kg"}, {"measurement": "LD50", "setting": "[2]; iv, I.V., mouse male", "result": 1020, "unit": "mg/kg"}, {"measurement": "LD50", "setting": "[2]; po, mouse female", "result": 5880, "unit": "mg/kg"}, {"measurement": "LD50", "setting": "[2]; po, mouse male", "result": 6290, "unit": "mg/kg"}, {"measurement": "LD50", "setting": "[3]; ip, I.P., rat female", "result": 2440, "unit": "mg/kg"}, {"measurement": "LD50", "setting": "[3]; ip, I.P., rat male", "result": 2650, "unit": "mg/kg"}, {"measurement": "LD50", "setting": "[3]; po, rat female", "result": 4680, "unit": "mg/kg"}, {"measurement": "LD50", "setting": "[3]; po, rat male", "result": 5840, "unit": "mg/kg"}, {"measurement": "ED (maximum effect)", "setting": "capillary permeability; ip, read-out: dose at which maximum effect on capillary permeability is attained", "result": 200, "unit": "µmol/kg"}, {"measurement": "minimal effective dose", "setting": "capillary permeability; ip, read-out: dose from which decrease of the capillary permeability appears", "result": "≥ 8", "unit": "µmol/kg"}]}, {"smiles": "O=S(=O)(O)c1cc(O)c(S(=O)(=O)O)cc1O", "note": "[bis-diethylamine p-dihydroxy benzene disulfonate] [listing 2 of 2 here]", "values": [{"measurement": "Percentage decrease of average bleeding time", "setting": "average bleeding time; 0.625 micromoles/kg", "result": 8.5, "unit": "%"}, {"measurement": "Percentage decrease of average bleeding time", "setting": "average bleeding time; 1.25 micromoles/kg", "result": 19.5, "unit": "%"}, {"measurement": "Percentage decrease of average bleeding time", "setting": "average bleeding time; 2.5 micromoles/kg", "result": 32.0, "unit": "%"}, {"measurement": "duration of effect on bleeding time (in words)", "setting": "average bleeding time; 5 micromoles/kg", "result": "long lasting"}, {"measurement": "% decrease of average bleeding time", "setting": "average bleeding time; 5 micromoles/kg, 1 hour after i.v. administration", "result": 43.0, "unit": "%"}, {"measurement": "% decrease of average bleeding time", "setting": "average bleeding time; 5 micromoles/kg, 2 hours after i.v. administration", "result": 46.8, "unit": "%"}, {"measurement": "% decrease of average bleeding time", "setting": "average bleeding time; 5 micromoles/kg, 4 hours after i.v. administration", "result": 42.0, "unit": "%"}, {"measurement": "% decrease of average bleeding time", "setting": "average bleeding time; 5 micromoles/kg, 8 hours after i.v. administration", "result": 33.5, "unit": "%"}, {"measurement": "% decrease of average bleeding time", "setting": "average bleeding time; 5 micromoles/kg, 16 hours after i.v. administration", "result": 32.0, "unit": "%"}, {"measurement": "% decrease of average bleeding time", "setting": "average bleeding time; 5 micromoles/kg, 24 hours after i.v. administration", "result": 21.0, "unit": "%"}, {"measurement": "Percentage decrease of average bleeding time", "setting": "average bleeding time; 5.0 micromoles/kg", "result": 43.0, "unit": "%"}, {"measurement": "Percentage decrease of average bleeding time", "setting": "average bleeding time; 7.05 micromoles/kg", "result": 51.0, "unit": "%"}, {"measurement": "Percentage decrease of average bleeding time", "setting": "average bleeding time; 10.0 micromoles/kg", "result": 50.0, "unit": "%"}, {"measurement": "DE50", "setting": "average bleeding time", "result": "2,25 μmoles/kg"}, {"measurement": "effect on bleeding time (in words)", "setting": "average bleeding time; rabbit", "result": "produces a decrease of the bleeding time"}, {"measurement": "dose dependence of decrease of capillary permeability (in words)", "setting": "capillary permeability; i.p., intermediate doses (8 to 200 micromoles/kg)", "result": "effects proportional to the logarithm of the dose"}, {"measurement": "FREE CHOLESTEROL (plasma)", "setting": "[4]; Triton + compound, Triton alone 60.5 ± 2.5", "result": "54.4 ± 3.9", "unit": "mg %"}, {"measurement": "TOTAL CHOLESTEROL (plasma)", "setting": "[4]; Triton + compound, Triton alone 238.4 ± 6.5", "result": "223.0 ± 15.1", "unit": "mg %"}, {"measurement": "TRIGLYCERIDES (plasma)", "setting": "[4]; Triton + compound, Triton alone 773.5 ± 59.1", "result": "589.5 ± 57.9", "unit": "mg %"}, {"measurement": "TOTAL LIPIDS (plasma)", "setting": "[4]; Triton + compound, Triton alone 2466.9 ± 141.2", "result": "2001.9 ± 193.7", "unit": "mg %"}, {"measurement": "effect on increase of plasma cholesterol, triglyceride, and total lipids levels (in words)", "setting": "[4]; Triton WR-1339 treated rats", "result": "significantly inhibits the increase"}]}, {"smiles": "O=S(=O)(O)c1cc(O)c(S(=O)(=O)O)cc1O", "note": "[calcium p-dihydroxybenzene-disulfonate, calcium p-dihydroxy benzene disulfonate]", "values": [{"measurement": "DL50", "setting": "[1]; po", "result": "> 6880"}, {"measurement": "DE50", "setting": "average bleeding time", "result": "0,98 μmoles/kg"}]}, {"smiles": "O=S(=O)(O)c1cc(O)c(S(=O)(=O)O)cc1O", "note": "[lithium p-dihydroxybenzene-disulfonate, lithium p-dihydroxy benzene disulfonate]", "values": [{"measurement": "DL50", "setting": "[1]; iv", "result": 2186}, {"measurement": "DE50", "setting": "average bleeding time", "result": "0,90 μmoles/kg"}]}]}
